Assay results: patent US20080076847A1, “Polymerizable compositions with acylgermanes as initiatiors” (IVOCLAR VIVADENT AG, priority 2006, published 2008)
Read-outs that look alike come from different tables or passages of the source.

How the values were obtained:
[1] = Photoinitiator activity by photo-DSC
Description: The activity of the photoinitiators was measured by means of photo-DSC (Differential Scanning Calorimetry) measurements on a DSC-50 device from Shimadzu, wherein the samples were irradiated alternatively with different dental lamps (Astalis 3: halogen lamp, wavelength range 400-500 nm, intensity 530 mW/cm^2; Bluephase C8: LED, wavelength range 430-490 nm, intensity 1100 mW/cm^2; Ivoclar Vivadent AG). The activity is characterized by the time of peak maximum (tmax), the polymerization rate (RP) which corresponds to the peak height, and the double bond conversion (DBC). The respective photoinitiators were dissolved in a resin mixture of D3MA:UDMA:bis-GMA=1:1:1 and then measured in an aluminium crucible by means of DSC. […]

[2] = known photoinitiators, longest-wave maximum; cited from earlier work
[3] = UV-VIS absorption maximum; type: physicochemical; conditions: longest-wave maximum
[4] = Astralis 3 lamp (400-500 nm), 0.022 mmol PI per gram of resin
[5] = Bluephase C8 lamp (430-490 nm), 0.022 mmol PI per gram of resin

SMILES	DBC (double bond conversion) [1, 4]	Rp × 10^−3 (polymerization rate) [1, 4]	DBC (double bond conversion) [1, 5]	Rp × 10^−3 (polymerization rate) [1, 5]	DBC (double bond conversion) ([1]; PI concentration 0.0014 mmol/g)	Rp × 10^−3 (polymerization rate) ([1]; PI concentration 0.0014 mmol/g)	DBC (double bond conversion) ([1]; PI concentration 0.0055 mmol/g)	Rp × 10^−3 (polymerization rate) ([1]; PI concentration 0.0055 mmol/g)	absorption maximum [2]	curing time compared with campherquinone/amine ([1]; resin mixture D3MA:UDMA:bis-GMA=1:1:1)	polymerization rate (Rp) compared with camphorquinone in combination with an amine accelerator ([1]; resin mixture D3MA:UDMA:bis-GMA=1:1:1, same formulation)	absorption maximum [3]
Cc1cc(C)c(C(=O)P(=O)(C(=O)c2c(C)cc(C)cc2C)c2ccccc2)c(C)c1 [Irg 819, bis(2,4,6-trimethylbenzoyl)phenylphosphine oxide, reference compound]	59%	67.5 mol/(l × s)	45%	43.5 mol/(l × s)	42%	30.4 mol/(l × s)	48%	48.3 mol/(l × s)	397 nm	–	–	–
C[CH2][Ge]([CH2]C)([C](=O)c1ccccc1)[C](=O)c1ccccc1 [Bis-AG, bisbenzoyldiethylgermanium]	84%	99.2 mol/(l × s)	72%	98.5 mol/(l × s)	56%	61.0 mol/(l × s)	66%	85.6 mol/(l × s)	–	halved	almost double	418.5 nm
CC12CCC(C(=O)C1=O)C2(C)C (stereo not drawn) [camphorquinone]	–	–	–	–	–	–	–	–	468 nm	–	–	–
[CH3][Ge]([CH3])([CH3])[C](=O)c1ccccc1 [Mono-AG, benzoyltrimethylgermanium]	56%	51.0 mol/(l × s)	49%	48.3 mol/(l × s)	30%	16.4 mol/(l × s)	48%	36.2 mol/(l × s)	–	–	–	411.5 nm
